The target in assay [1] is T1, NK2 receptor of tachykinins (Rattus norvegicus, UniProt P16610).
T1 construct: from tissue; host or cells: rat urinary bladder
T1 sequence (P16610 1-390): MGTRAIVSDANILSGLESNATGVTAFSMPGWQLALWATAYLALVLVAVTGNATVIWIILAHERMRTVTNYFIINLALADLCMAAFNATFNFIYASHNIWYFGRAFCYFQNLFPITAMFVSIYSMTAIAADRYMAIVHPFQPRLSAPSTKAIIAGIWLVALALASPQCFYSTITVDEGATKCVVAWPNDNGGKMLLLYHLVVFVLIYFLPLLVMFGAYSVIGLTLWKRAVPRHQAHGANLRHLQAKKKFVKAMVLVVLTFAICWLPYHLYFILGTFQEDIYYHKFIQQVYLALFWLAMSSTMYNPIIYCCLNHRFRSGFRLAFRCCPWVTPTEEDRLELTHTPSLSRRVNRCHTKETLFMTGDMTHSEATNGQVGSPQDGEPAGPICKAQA
The assay can be described thus: in vitro functional test, rat urinary bladder (RUB). The following applies: for Kb: read-out: pA2 RUB (converted). Format: cell-based. The protocol:
(§1) The compounds described in the present invention act as antagonists to the NK2 receptor of tachykinins. The biological activity was evaluated in three in vitro functional tests, using rabbit pulmonary artery (RPA), hamster trachea (HT) and rat urinary bladder (RUB), according to the methods described by C. A. Maggi et al., Br. J. Pharmacol., 1990, 100, 588; P. D'Orleans-Juste et al., Eur. J. Pharmacol., 1986, 125, 37; and C. A. Maggi et al., J. Pharmacol. Exp. Ther., 1988, 246, 308. The affinity of the compounds for the human NK2 receptor was evaluated in a binding test using membranes of Chinese hamster ovary (CHO) cells transfected with the NK2 receptor of human ileum and the radioligand [^125I]NKA (Amersham, […] 2000 Ci/mmol) at the concentration of 100 pM in competition studies. The substances under examination were tested in a concentration range between 0.01 nM and […]. At the end of incubation (30 min, 20° C.) the test specimens were filtered, and radioactivity was determined using a gamma-counter.
(§2) The data emerging from the functional studies were expressed as pA2 (O. Arunlakshana and H. O. Shild, Br. J. Pharmacol. Chemother., 1959, 14, 45), and the data emerging from the binding studies were expressed as pKi (log Ki calculated with the LIGAND program; P. J. Munson et al., Anal. Biochem., 1980, 107, 220).

The target in another assay is T2, human NK2 receptor (Homo sapiens, UniProt P21452).
T2 construct: expressed in transfected cells; host or cells: CHO cells (membranes)
T2 sequence (P21452 1-398): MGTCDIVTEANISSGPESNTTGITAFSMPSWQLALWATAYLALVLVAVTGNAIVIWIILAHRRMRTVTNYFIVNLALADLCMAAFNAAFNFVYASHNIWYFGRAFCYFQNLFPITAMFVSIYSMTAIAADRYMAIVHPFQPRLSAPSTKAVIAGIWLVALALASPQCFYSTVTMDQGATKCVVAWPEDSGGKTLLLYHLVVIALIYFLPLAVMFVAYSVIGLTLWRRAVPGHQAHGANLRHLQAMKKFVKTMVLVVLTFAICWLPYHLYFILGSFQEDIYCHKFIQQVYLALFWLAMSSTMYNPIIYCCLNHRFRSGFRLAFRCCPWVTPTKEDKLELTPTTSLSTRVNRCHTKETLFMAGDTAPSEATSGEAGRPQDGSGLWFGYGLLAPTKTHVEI
The assay can be described thus: binding test, [125I]NKA competition on membranes of CHO cells transfected with the NK2 receptor of human ileum. The following applies: CHO cell membranes, [125I]NKA 100 pM, 30 min, 20° C. Here is the method:
as §1, §2

The target of assay [2] is T3, NK2 receptor of tachykinins (Oryctolagus cuniculus, UniProt P79218).
T3 construct: from tissue; host or cells: rabbit pulmonary artery
T3 sequence (P79218 1-384): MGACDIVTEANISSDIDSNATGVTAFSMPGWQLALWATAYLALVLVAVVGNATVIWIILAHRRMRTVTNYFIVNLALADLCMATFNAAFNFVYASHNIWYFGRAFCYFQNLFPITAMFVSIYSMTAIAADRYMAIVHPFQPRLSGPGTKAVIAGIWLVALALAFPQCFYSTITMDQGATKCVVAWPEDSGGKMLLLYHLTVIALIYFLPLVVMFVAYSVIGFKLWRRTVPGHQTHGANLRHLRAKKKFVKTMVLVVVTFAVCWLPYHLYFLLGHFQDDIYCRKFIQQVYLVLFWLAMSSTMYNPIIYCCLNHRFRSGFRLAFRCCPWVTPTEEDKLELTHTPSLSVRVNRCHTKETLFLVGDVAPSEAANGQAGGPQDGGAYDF
Briefly: in vitro functional test, rabbit pulmonary artery (RPA). Format: cell-based. The following applies: read-out: pA2 RPA (converted). The protocol: as §1, §2

Assay [3] has as its target T4, NK2 receptor of tachykinins (Mesocricetus auratus, UniProt P51144).
T4 construct: from tissue; host or cells: hamster trachea
T4 sequence (P51144 1-384): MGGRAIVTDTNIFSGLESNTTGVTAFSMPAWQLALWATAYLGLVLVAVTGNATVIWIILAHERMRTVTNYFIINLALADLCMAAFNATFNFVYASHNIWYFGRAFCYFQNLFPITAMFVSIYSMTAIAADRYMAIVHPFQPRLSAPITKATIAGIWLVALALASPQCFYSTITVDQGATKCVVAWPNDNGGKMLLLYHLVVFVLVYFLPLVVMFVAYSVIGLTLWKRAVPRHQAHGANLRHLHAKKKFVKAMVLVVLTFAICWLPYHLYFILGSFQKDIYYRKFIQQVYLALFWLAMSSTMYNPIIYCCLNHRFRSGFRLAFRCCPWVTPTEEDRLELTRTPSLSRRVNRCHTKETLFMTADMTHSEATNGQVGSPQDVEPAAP
Briefly: in vitro functional test, hamster trachea (HT). Format: cell-based. The following applies: read-out: pA2 HT (converted). The protocol: as §1, §2

On to `O=C1C[C@@H](NC(=O)CN2CCC(N3CCOCC3)CC2)C(=O)NC[C@@H](Cc2ccccc2)NC(=O)[C@H](Cc2ccccc2)NC(=O)[C@H](Cc2c[nH]c3ccccc23)N1` [Example 2, cyclo{-Suc[1-(R)-2(4-morpholin-4-yl-piperidin-1-yl)-acetyl amino]-Trp-Phe-[(R)—NH—CH(CH2—C6H5)—CH2NH]-}], for which, in assay [1], the Kb was 0.158 nM. Affinity on human NK2 receptor was put at a Ki of 0.2 nM.
Regarding `O=C1C[C@@H](NC(=O)CN2CCC(N3CCCCC3)CC2)C(=O)NC(Cc2c[nH]c3ccccc23)C(=O)NC(Cc2ccc(F)cc2)C(=O)N[C@H](Cc2ccccc2)CN1` (stereo partly drawn) [Example 3, cyclo{-Suc[1-(R)-2(1,4′)-bipiperidinyl-1′-yl-acetyl amino]-Trp-Phe-(4-F)-[(R)—NH—CH(CH2—C6H5)—CH2NH]-}], the “pA2 RUB” value in assay [1] came to 9.3. Moreover, on human NK2 receptor, the negative logarithm of the Ki (pKi) (usually −log10 of the Ki, conventionally taken in molar units) is 9.6.
Regarding `O=C1CC(C(=O)N2CCC(N3CCCCC3)CC2)C(=O)NCC(Cc2ccccc2)NC(=O)C(Cc2ccccc2)NC(=O)C(Cc2c[nH]c3ccccc23)N1` (single isomer, unassigned) [Example 7, cyclo{-Suc[1-(R or S)-(1,4′)-bipiperidinyl-1′-carbonyl]-Trp-Phe[(R)—NH—CH(CH2—C6H5)—CH2NH]-}], in assay [1], the Kb is 0.794 nM. Also, the inhibition constant Ki (as a rule, a dissociation constant, usually derived from enzyme kinetics or from competition with a known ligand) on human NK2 receptor is 0.0501 nM.
Turning to `O=C1C[C@@H](NC(=O)CN2CCC(N3CCCCC3)CC2)C(=O)NC[C@@H](Cc2ccccc2)NC(=O)[C@H](Cc2ccccc2)NC(=O)[C@H](Cc2c[nH]c3ccccc23)N1` [Example 1, cyclo{-Suc[1-(R)-2(1,4′)-bipiperidinyl-1′-yl-acetyl amino]-Trp-Phe-[(R)—NH—CH(CH2—C6H5)—CH2NH]-}], the Kb in assay [2] was 2 nM; in assay [1], 0.631 nM; in assay [3], 1.58 nM. The compound further had a negative logarithm of the Ki (pKi) on human NK2 receptor of 9.4.
The compound `O=C1CC(C(=O)N2CCC(N3CCCCC3)CC2)C(=O)NCC(Cc2ccccc2)NC(=O)C(Cc2ccccc2)NC(=O)C(Cc2c[nH]c3ccccc23)N1` (single isomer, unassigned) [Example 8, cyclo{-Suc[1-(S or R)-(1,4′)-bipiperidinyl-1′-carbonyl]-Trp-Phe[(R)—NH—CH(CH2—C6H5)—CH2NH]-}] gave an inhibition constant Ki on human NK2 receptor of 0.316 nM.
With `O=C1C[C@@H](NC(=O)CN2CCC(N3CCOCC3)CC2)C(=O)NC(Cc2c[nH]c3ccc(F)cc23)C(=O)NC(Cc2ccccc2)C(=O)N[C@H](Cc2ccccc2)CN1` (stereo partly drawn) [Example 4, cyclo{-Suc[1-(R)-2(4-morpholinyl-4-piperidinyl-1-yl-acetyl)amino]-Trp-(5-F)-Phe-[(R)-N H—CH(CH2—C6H5)—CH2NH]-}], the “pA2 RUB” value in assay [1] stood at 9.7. The negative logarithm of the Ki (pKi) on human NK2 receptor came to 10.1.
